According to publication PMC10113987, “A tool for nuclear imaging of the SARS-CoV-2 entry receptor: molecular model and preclinical development of ACE2-selective radiopeptides” (EJNMMI Research, 2023):
Like-named read-outs stand apart in the source and are kept apart here. Positions of bridges follow the written chain, without caps; N, C: chain ends. Residues, ends and D or L forms follow the SMILES beside them. *: point of attachment. HBEDCC = O=C(O)CCc1ccc(O)c(CN(CCN(CC(=O)O)Cc2cc(CCC(=O)*)ccc2O)CC(=O)O)c1

Assays:
[1] = design: method as in doi:10.1016/0020-1693(94)04012-5; conditions: cited from earlier work
[2] = system: HEK-ACE2/HEK-ACE-xenografted mice; test: Biodistribution in HEK-ACE2/HEK-ACE xenografted mice; format: in vivo, mouse
Procedure: (§1) All applicable international, national, and/or institutional guidelines for the care and use of animals were followed. In particular, all animal experiments were carried out according to the guidelines of the Swiss Regulations for Animal Welfare. Preclinical studies have been ethically approved by the Cantonal Committee of Animal Experimentation and permitted by the responsible cantonal authorities (License N° 75743). Five-week-old female CD1/nude mice and female immunocompetent FVB mice were obtained from Charles River Laboratories (Sulzfeld, Germany) and fed with standard rodent chow ad libitum. CD1/nude were subcutaneously inoculated with HEK-ACE2 cells (6–8 × 10^6 cells in 100 µL PBS) on the right shoulder and approximately one week later with HEK-ACE (4 × 10^6 cells in 100 µL PBS) on the left shoulder. Imaging and biodistribution studies were performed 2–4 weeks later when the xenografts reached a size of 100–300 mm^3.
Biodistribution studies in xenograft-bearing mice were performed 2–4 weeks after cell inoculation. Mice were intravenously injected with [^67Ga]Ga-DOTA-DX600, [^67Ga]Ga-NODAGA-DX600, [^67Ga]Ga-HBED-CC-DX600 or [^67Ga]Ga-DOTA-BPP9a (3 MBq, 0.5 nmol, 100 µL) diluted in NaCl 0.9% containing 0.05% BSA. The mice were sacrificed 3 h after administration of the radiopeptides. Selected tissues and organs were collected, weighed and counted using a γ-counter. The results were listed as a percentage of the injected activity per gram of tissue mass (% IA/g), using counts of a defined volume of the original injection solution measured simultaneously, resulting in decay-corrected values. Statistical analysis was performed by applying a one‐way ANOVA test with a Tukey’s multiple comparisons post‐test (GraphPad Prism software, version 8.3.1).

[3] = system: HEK-ACE2/HEK-ACE-xenografted mice; test: SPECT/CT imaging and quantification of retained activity in HEK-ACE2/HEK-ACE xenografted mice; format: in vivo, mouse; conditions: SPECT/CT quantification, non-decay-corrected
Procedure: as §1
SPECT/CT imaging was performed using a four-head, multiplexing, multipinhole small-animal SPECT camera (NanoSPECT/CT™, Mediso Medical Imaging Systems, Budapest, Hungary). Each head was outfitted with a tungsten-based aperture of nine 1.4 mm-diameter pinholes and a thickness of 10 mm. CT scans of 7.5 min duration were followed by SPECT scans of ~ 50 min performed 1 h, 3 h and 24 h after injection of the respective radiopeptide (10 MBq, 0.5 nmol, 100 μL), diluted in NaCl 0.9% containing 0.05% BSA. During the scan, mice were anesthetized with a mixture of isoflurane and oxygen. The images were acquired using Nucline software (version 1.02, Mediso Ltd., Budapest, Hungary). The real-time CT reconstruction used a cone-beam-filtered backprojection. The reconstruction of SPECT data was performed with the HiSPECT software (version 1.4.3049, Scivis GmbH, Göttingen, Germany) using γ-energies of 93.20 keV (± 10%), 184.60 keV (± 10%) and 300.00 keV (± 10%) for gallium-67. All images were prepared using the VivoQuant post-processing software (version 3.0, inviCRO Imaging Services and Software, Boston, US). A Gauss post-reconstruction filter (full width at half maximum, 1 mm) was applied, and the scale of activity for gallium-67 was set as indicated on the SPECT/CT images. In order to estimate the wash-out of the DX600-based radiopeptides from the HEK-ACE2 xenografts and kidneys over time, the absolute amount of activity was determined in these tissues using the VivoQuant quantification tool. The accumulated activity (non-decay-corrected value in MBq) in the xenografts and kidneys, respectively, obtained at the 1 h p.i. timepoint was set as 100%. The percentage of activity retained in these tissues was determined at 3 h and 24 h p.i. based on the absolute activity determined at these timepoints.

[4] = In vitro stability in human blood plasma (TLC); format: in vitro ADME; conditions: 37 °C, whole incubation period of 24 h
Procedure: (§2) The ^67Ga-labeled DX600-radiopeptides (20 MBq/nmol) were incubated in human and mouse plasma (10 MBq/200 µL), respectively, at 37 °C. Aliquots were taken at variable time points up to 24 h for analysis using reversed phase thin layer chromatography (TLC) with citrate buffer (0.1 M, pH 5.5) as a mobile phase. Images of the TLC plates were obtained using a storage phosphor system (Cyclone Plus, PerkinElmer) and quantified using the OptiQuant software (version 5.0, Bright Instrument Co Ltd., PerkinElmer™) (Supplementary Information).
(§3) The radiopeptides were prepared and TLC experiments were performed immediately after radiolabeling by applying the diluted radiopeptides in saline (1 µL; ~0.05 MBq) and [^67Ga]GaCl3 solution (1 µL; ~0.05 MBq) on the TLC plates. The radiopeptides were incubated in mouse or human plasma (10 MBq/200 µL) at 37° C. TLC was performed with an aliquot of the plasma samples at the given timepoints (30 min, 1 h, 3 h and 24 h). The TLC plates were exposed to a phosphor screen followed by development using a storage phosphor system (Cyclone Plus, PerkinElmer). The quantification of the signals was carried out using the OptiQuant software (version 5.0, Bright Instrument Co Ltd., PerkinElmer^TM). The obtained chromatograms were analyzed by determination of the peak area of the radiolabeled peptide, the released gallium-67 as well as degradation products of unknown structure. The quantity of the intact product was expressed as percentage of the sum of integrated peak areas of the entire chromatogram.

[5] = system: FVB mice; test: In vivo stability in immunocompetent FVB mice (TLC of blood plasma, urine, kidneys); design: species or system mouse; conditions: 1 h p.i., fraction of accumulated activity
Procedure: In order to investigate the stability of the radiopeptides, the ^67Ga-labeled DX600 peptides (20 MBq/nmol) were tested in immunocompetent FVB mice (10 MBq in 100 μL per mouse). Before sacrificing, blood was collected from each mouse 1 h after injection of the radiopeptides. After centrifugation, the blood plasma was analyzed using reversed phase TLC with citrate buffer (0.1 M, pH 5.5) as a mobile phase. The kidneys were collected and processed to investigate the presence of intact radiopeptides and potential metabolites using the same TLC system. The analysis of the chromatograms was performed as described for the in vitro plasma stability (Additional file 1).
Methods: Immunocompetent FVB mice were injected with the DX600-based radiopeptides (n=2). One hour later, urine was collected and blood was sampled from the retrobulbar vein followed by centrifugation (10 min, 200 rcf). A drop of urine and blood plasma was analyzed using the TLC method described for in vitro stability experiments above (reversed phase as stationary phase and citrate buffer pH 5.5 as mobile phase). The data were also confirmed using normal phase TLC. Kidneys of mice were collected, cut into small pieces, homogenized in 200 μL buffer solution (ice-cold methanol containing 0.025% NH4OH) and centrifuged (5 min, 2300 rcf, 4° C) as described by Boss et al.. An aliquot of the supernatant of each sample was developed using the same TLC method as for urine and blood plasma samples. The TLC plates were exposed to a phosphor screen which was afterwards read using a storage phosphor system (Cyclone Plus, PerkinElmer). The quantification of the signals was carried out using the OptiQuant software (version 5.0, Bright Instrument Co Ltd., PerkinElmer^TM). The obtained chromatograms were analyzed by determination of the peak area of the radiolabeled peptide, the released gallium-67 as well as degradation products of unknown structure. The quantity of the intact product was expressed as percentage of the sum of integrated peak areas of the entire chromatogram.

[6] = In vitro stability in mouse blood plasma (TLC); format: in vitro ADME; conditions: 37 °C
Procedure: as §2, §3

[7] = 3 h after i.v. injection, decay-corrected, n = 3

Compound: O=C(O)CCc1ccc(O)c(CN(CCN(CC(=O)O)Cc2cc(CCC(=O)O)ccc2O)CC(=O)O)c1 [HBED-CC, 3-(3-((2-((5-(2-carboxyethyl)-2-hydroxyphenyl)methyl-(carboxymethyl)amino)ethyl-(carboxymethyl)amino)methyl)-4-hydroxyphenyl)propanoic acid]
- logK of coordination ([1]; Ga^3+): 38
- logK of coordination ([1]; Zn^2+): 18

Compound: CC(=O)N[C@@H](CCCCNC(=O)CCc1ccc(O)c(CN(CCN(CC(=O)O)Cc2cc(CCC(=O)O)ccc2O)CC(=O)O)c1)C(=O)NCC(=O)N[C@@H](CC(=O)O)C(=O)N[C@@H](Cc1ccc(O)cc1)C(=O)N[C@@H](CO)C(=O)N[C@@H](Cc1c[nH]cn1)C(=O)N[C@H]1CSSC[C@@H](C(=O)N[C@H](C(=O)N[C@@H](Cc2ccc(O)cc2)C(=O)N2CCC[C@H]2C(=O)N[C@@H](CC(=O)O)C(=O)N2CCC[C@H]2C(=O)N[C@@H](CCC(=O)O)C(=O)NCC(=O)NCC(=O)NCC(N)=O)[C@@H](C)O)NC(=O)[C@H](CCCCN)NC(=O)[C@H](Cc2c[nH]c3ccccc23)NC(=O)[C@H](Cc2c[nH]c3ccccc23)NC(=O)[C@@H]2CCCN2C(=O)[C@H](Cc2ccc(O)cc2)NC(=O)[C@H](Cc2ccc(O)cc2)NC(=O)[C@H](CCCNC(=N)N)NC(=O)[C@H](CC(C)C)NC(=O)[C@@H]2CCCN2C(=O)[C@H](CO)NC1=O [[^67Ga]Ga-HBED-CC-DX600, metal not drawn] (Ac-K(HBEDCC)GDYSHCSPLRYYPWWKCTYPDPEGGG-NH2; disulfide 7-18)
- Biodistribution: ACE2 xenograft (HEK-ACE2) [2, 7]: 12.3 ± 1.3 % IA/g
- Biodistribution: ACE xenograft (HEK-ACE) [2, 7]: < 0.5 % IA/g
- Biodistribution: blood [2, 7]: 0.09 ± 0.04 % IA/g
- Biodistribution: bone [2, 7]: 0.05 ± 0.02 % IA/g
- Biodistribution: heart [2, 7]: 0.07 ± 0.03 % IA/g
- Biodistribution: intestines [2, 7]: 0.43 ± 0.31 % IA/g
- Biodistribution: kidneys (renal retention) [2, 7]: 7.2 ± 2.2 % IA/g
- Biodistribution: liver [2, 7]: 0.23 ± 0.16 % IA/g
- Biodistribution: lung [2, 7]: 0.13 ± 0.05 % IA/g
- Biodistribution: muscle [2, 7]: 0.03 ± 0.02 % IA/g
- Biodistribution: salivary glands [2, 7]: 0.05 ± 0.02 % IA/g
- Biodistribution: spleen [2, 7]: 0.06 ± 0.03 % IA/g
- Biodistribution: stomach [2, 7]: 0.09 ± 0.03 % IA/g
- Biodistribution: ACE xenograft (HEK-ACE) ([2]; 3 h after i.v. injection, decay-corrected, n = 3, listed as [^67Ga]Ga-HBED-CC- DX600): 0.27 ± 0.33 % IA/g
- HEK-ACE2 xenograft-to-kidney ratio ([2]; 3 h after injection): 1.77 ± 0.34
- Activity retained in the kidneys relative to the 1 h p.i.-timepoint ([3]; 3 h p.i.): 30%
- Activity retained in the kidneys relative to the 1 h p.i.-timepoint ([3]; 24 h p.i.): < 1%
- Intact radiopeptide in human blood plasma [4]: > 99%
- Intact radiopeptide in kidney homogenates [5]: > 92%
- Radiometabolites in kidney homogenates [5]: ~ 7.5%
- Intact radiopeptide in mouse blood plasma ([6]; 3 h): 87 ± 2%
- Intact radiopeptide in mouse blood plasma ([6]; 24 h): 29 ± 1%
